Measured values published in US20080194585A1, “Fungicidal Pyrazine Derivatives” (priority 2005, published 2008).
Marks after values point to notes of the source that are not given here.

Columns and labels:
Rhizoctonia oryzae = test: Test G: turf brown patch, preventive spray on creeping bent grass seedlings
Protocol: (the causal agent of turf brown patch) and incubated in a saturated atmosphere at 27° C. for 24 h, and then moved to a growth chamber at 27° C. for 5 days, after which disease ratings were made.

Botrytis cinerea = test: Test E: tomato botrytis, preventive spray on tomato seedlings
[1] = tested on: Puccinia recondita f. sp. tritici; test: Test K: wheat leaf rust, preventive spray on wheat seedlings
Sclerotinia sclerotiorum = test: Test C: cucumber white mold, preventive spray on cucumber seedlings
Septoria nodorum = test: Test H: wheat glum blotch, preventive spray on wheat seedlings
Protocol: (the causal agent of wheat glum blotch) and incubated in a saturated atmosphere at 20° C. for 48 h, and then moved to a growth chamber at 22° C. for 5 days, after which disease ratings were made.

fusarium graminearium = test: Test I: wheat head scab, preventive spray on wheat seedlings; conditions: 200 ppm
Protocol: (the causal agent of wheat head scab) and incubated in a saturated atmosphere at 20° C. for 72 h, and then moved to a growth chamber at 22° C. for 5 days, after which disease ratings were made.

Plasmopara viticola = test: Test D: grape downy mildew, spray after inoculation of grape seedlings; assay type: in vivo; conditions: 200 ppm
From the text: Upon removal, disease ratings were made. […] A dash (-) indicates no test results.

[2] = tested on: Colletotrichum orbiculare; test: Test B: cucumber Colletotrichum anthracnose, preventive spray on cucumber seedlings
Pythium aphanidermatum = test: Test A: bluegrass pythium blight, preventive spray on bluegrass seedlings; conditions: 200 ppm
[3] = tested on: Erysiphe graminis f. sp. tritici; test: Test L: wheat powdery mildew, preventive spray on wheat seedlings
Septoria tritici = test: Test J: wheat leaf blotch, preventive spray on wheat seedlings; assay type: in vivo
From the text: A dash (-) indicates no test results.

Phytophthora infestans = test: whole plant or invertebrate; assay type: in vivo; conditions: 200 ppm

CC(C)Cn1c(-c2cc(F)ccc2F)c(Cl)nc(-n2cccn2)c1=O [compound 56]
Test G disease control rating (Rhizoctonia oryzae; 200 ppm): 92% | Test E disease control rating (Botrytis cinerea; 200 ppm): 100% | Test K disease control rating ([1]; 200 ppm): 99% | Test C disease control rating (Sclerotinia sclerotiorum; 200 ppm): 99% | Test H disease control rating (Septoria nodorum; 200 ppm): 100% | Test I disease control rating (fusarium graminearium): 60% | Test D disease control rating (Plasmopara viticola): 29% | Test B disease control rating ([2]; 200 ppm): 99% | Test A disease control rating (Pythium aphanidermatum): 0% | Test L disease control rating ([3]; 200 ppm): 99% | Test J disease control rating (Septoria tritici; 40 ppm (*)): 100* % | Test F disease control rating (Phytophthora infestans): 0%

CC(C)Cn1c(-c2c(F)ccc(F)c2F)c(Cl)nc(-n2cccn2)c1=O [compound 57]
Test G disease control rating (Rhizoctonia oryzae; 200 ppm): 98% | Test E disease control rating (Botrytis cinerea; 200 ppm): 100% | Test K disease control rating ([1]; 200 ppm): 100% | Test C disease control rating (Sclerotinia sclerotiorum; 200 ppm): 98% | Test H disease control rating (Septoria nodorum; 200 ppm): 100% | Test I disease control rating (fusarium graminearium): 0% | Test D disease control rating (Plasmopara viticola): 32% | Test B disease control rating ([2]; 200 ppm): 100% | Test A disease control rating (Pythium aphanidermatum): 0% | Test L disease control rating ([3]; 200 ppm): 100% | Test J disease control rating (Septoria tritici; 40 ppm (*)): 99* % | Test F disease control rating (Phytophthora infestans): 0%

CCC(C)Cn1c(-c2c(F)cccc2F)c(Cl)nc(-n2ccc(C)n2)c1=O (stereo not drawn) [compound 66]
Test G disease control rating (Rhizoctonia oryzae; 40 ppm (*)): 95* % | Test E disease control rating (Botrytis cinerea; 40 ppm (*)): 100* % | Test K disease control rating ([1]; 40 ppm (*)): 97* % | Test C disease control rating (Sclerotinia sclerotiorum; 40 ppm (*)): 0* % | Test H disease control rating (Septoria nodorum; 40 ppm (*)): 89* % | Test I disease control rating (fusarium graminearium): 0% | Test D disease control rating (Plasmopara viticola): 0% | Test B disease control rating ([2]; 40 ppm (*)): 62* % | Test A disease control rating (Pythium aphanidermatum): 0% | Test L disease control rating ([3]; 40 ppm (*)): 99* % | Test J disease control rating (Septoria tritici; 40 ppm (*)): 100* % | Test F disease control rating (Phytophthora infestans): 0%

CCC(C)Cn1c(-c2c(F)cccc2F)c(Cl)nc(-n2cnc(C#N)c2C#N)c1=O (stereo not drawn) [compound 67]
Test G disease control rating (Rhizoctonia oryzae; 40 ppm (*)): 0* % | Test E disease control rating (Botrytis cinerea; 40 ppm (*)): 0* % | Test K disease control rating ([1]; 40 ppm (*)): 0* % | Test C disease control rating (Sclerotinia sclerotiorum; 200 ppm): 0% | Test H disease control rating (Septoria nodorum; 40 ppm (*)): 0* % | Test I disease control rating (fusarium graminearium): 0% | Test D disease control rating (Plasmopara viticola): 0% | Test B disease control rating ([2]; 40 ppm (*)): 0* % | Test A disease control rating (Pythium aphanidermatum): 0% | Test L disease control rating ([3]; 40 ppm (*)): 0* % | Test J disease control rating (Septoria tritici; 200 ppm): 24% | Test F disease control rating (Phytophthora infestans): 0%

CCC(C)Cn1c(-c2c(F)cccc2F)c(Cl)nc(-n2cnc(Cl)c2Cl)c1=O (stereo not drawn) [compound 68]
Test G disease control rating (Rhizoctonia oryzae; 40 ppm (*)): 0* % | Test E disease control rating (Botrytis cinerea; 40 ppm (*)): 0* % | Test K disease control rating ([1]; 40 ppm (*)): 0* % | Test C disease control rating (Sclerotinia sclerotiorum; 200 ppm): 0% | Test H disease control rating (Septoria nodorum; 40 ppm (*)): 0* % | Test I disease control rating (fusarium graminearium): 0% | Test D disease control rating (Plasmopara viticola): 0% | Test B disease control rating ([2]; 40 ppm (*)): 0* % | Test A disease control rating (Pythium aphanidermatum): 0% | Test L disease control rating ([3]; 40 ppm (*)): 0* % | Test J disease control rating (Septoria tritici; 40 ppm (*)): 26* % | Test F disease control rating (Phytophthora infestans): 0%

CCc1nccn1-c1nc(Cl)c(-c2c(F)cccc2F)n(CC(C)CC)c1=O (stereo not drawn) [compound 70]
Test G disease control rating (Rhizoctonia oryzae; 40 ppm (*)): 0* % | Test E disease control rating (Botrytis cinerea; 40 ppm (*)): 0* % | Test K disease control rating ([1]; 40 ppm (*)): 55* % | Test C disease control rating (Sclerotinia sclerotiorum; 200 ppm): 0% | Test H disease control rating (Septoria nodorum; 40 ppm (*)): 0* % | Test I disease control rating (fusarium graminearium): 0% | Test D disease control rating (Plasmopara viticola): 0% | Test B disease control rating ([2]; 40 ppm (*)): 0* % | Test A disease control rating (Pythium aphanidermatum): 0% | Test L disease control rating ([3]; 40 ppm (*)): 0* % | Test J disease control rating (Septoria tritici; 40 ppm (*)): 83* % | Test F disease control rating (Phytophthora infestans): 0%

CCCc1nccn1-c1nc(Cl)c(-c2c(F)cccc2F)n(CC(C)CC)c1=O (stereo not drawn) [compound 71]
Test G disease control rating (Rhizoctonia oryzae; 40 ppm (*)): 30* % | Test E disease control rating (Botrytis cinerea; 40 ppm (*)): 0* % | Test K disease control rating ([1]; 40 ppm (*)): 68* % | Test C disease control rating (Sclerotinia sclerotiorum; 200 ppm): 0% | Test H disease control rating (Septoria nodorum; 40 ppm (*)): 0* % | Test I disease control rating (fusarium graminearium): 0% | Test D disease control rating (Plasmopara viticola): 0% | Test B disease control rating ([2]; 40 ppm (*)): 0* % | Test A disease control rating (Pythium aphanidermatum): 0% | Test L disease control rating ([3]; 40 ppm (*)): 0* % | Test J disease control rating (Septoria tritici; 40 ppm (*)): 64* % | Test F disease control rating (Phytophthora infestans): 0%

CCC(C)Cn1c(-c2c(F)cccc2F)c(Cl)nc(-n2ccnc2C(C)C)c1=O (stereo not drawn) [compound 72]
Test G disease control rating (Rhizoctonia oryzae; 40 ppm (*)): 58* % | Test E disease control rating (Botrytis cinerea; 40 ppm (*)): 0* % | Test K disease control rating ([1]; 40 ppm (*)): 61* % | Test C disease control rating (Sclerotinia sclerotiorum; 200 ppm): 0% | Test H disease control rating (Septoria nodorum; 40 ppm (*)): 0* % | Test I disease control rating (fusarium graminearium): 0% | Test D disease control rating (Plasmopara viticola): 0% | Test B disease control rating ([2]; 40 ppm (*)): 0* % | Test A disease control rating (Pythium aphanidermatum): 0% | Test L disease control rating ([3]; 40 ppm (*)): 53* % | Test J disease control rating (Septoria tritici; 40 ppm (*)): 74* % | Test F disease control rating (Phytophthora infestans): 0%

CC(C)Cn1c(-c2ccc(C(C)(C)C)cc2)c(Cl)nc(-n2cccn2)c1=O [compound 74]
Test G disease control rating (Rhizoctonia oryzae; 40 ppm (*)): 0* % | Test E disease control rating (Botrytis cinerea; 40 ppm (*)): 0* % | Test K disease control rating ([1]; 40 ppm (*)): 80* % | Test C disease control rating (Sclerotinia sclerotiorum; 200 ppm): 0% | Test H disease control rating (Septoria nodorum; 40 ppm (*)): 0* % | Test I disease control rating (fusarium graminearium): 0% | Test D disease control rating (Plasmopara viticola): 0% | Test B disease control rating ([2]; 40 ppm (*)): 0* % | Test A disease control rating (Pythium aphanidermatum): 0% | Test L disease control rating ([3]; 40 ppm (*)): 75* % | Test J disease control rating (Septoria tritici; 40 ppm (*)): 26* % | Test F disease control rating (Phytophthora infestans): 0%

CC(C)Cn1c(-c2ccc(C(C)(C)C)cc2)c(Cl)nc(-n2cncn2)c1=O [compound 75]
Test G disease control rating (Rhizoctonia oryzae; 40 ppm (*)): 0* % | Test E disease control rating (Botrytis cinerea; 40 ppm (*)): 0* % | Test K disease control rating ([1]; 40 ppm (*)): 0* % | Test C disease control rating (Sclerotinia sclerotiorum; 200 ppm): 0% | Test H disease control rating (Septoria nodorum; 40 ppm (*)): 0* % | Test I disease control rating (fusarium graminearium): 0% | Test D disease control rating (Plasmopara viticola): 0% | Test B disease control rating ([2]; 40 ppm (*)): 0* % | Test A disease control rating (Pythium aphanidermatum): 0% | Test L disease control rating ([3]; 40 ppm (*)): 0* % | Test J disease control rating (Septoria tritici; 40 ppm (*)): 7* % | Test F disease control rating (Phytophthora infestans): 0%

CC(C)Cn1c(-c2ccc(C(F)(F)F)cc2)c(Cl)nc(-n2cncn2)c1=O [compound 76]
Test G disease control rating (Rhizoctonia oryzae; 40 ppm (*)): 0* % | Test E disease control rating (Botrytis cinerea; 40 ppm (*)): 0* % | Test K disease control rating ([1]; 40 ppm (*)): 0* % | Test C disease control rating (Sclerotinia sclerotiorum; 200 ppm): 0% | Test H disease control rating (Septoria nodorum; 40 ppm (*)): 0* % | Test I disease control rating (fusarium graminearium): 0% | Test D disease control rating (Plasmopara viticola): 0% | Test B disease control rating ([2]; 40 ppm (*)): 0* % | Test A disease control rating (Pythium aphanidermatum): 0% | Test L disease control rating ([3]; 40 ppm (*)): 0* % | Test J disease control rating (Septoria tritici; 40 ppm (*)): 0* % | Test F disease control rating (Phytophthora infestans): 21%

CC(C)Cn1c(-c2ccc(OC(F)(F)F)cc2)c(Cl)nc(-n2cncn2)c1=O [compound 77]
Test G disease control rating (Rhizoctonia oryzae; 40 ppm (*)): 0* % | Test E disease control rating (Botrytis cinerea; 40 ppm (*)): 0* % | Test K disease control rating ([1]; 40 ppm (*)): 0* % | Test C disease control rating (Sclerotinia sclerotiorum; 200 ppm): 0% | Test H disease control rating (Septoria nodorum; 40 ppm (*)): 0* % | Test I disease control rating (fusarium graminearium): 0% | Test D disease control rating (Plasmopara viticola): 0% | Test B disease control rating ([2]; 40 ppm (*)): 0* % | Test A disease control rating (Pythium aphanidermatum): 0% | Test L disease control rating ([3]; 40 ppm (*)): 0* % | Test J disease control rating (Septoria tritici; 40 ppm (*)): 0* % | Test F disease control rating (Phytophthora infestans): 0%

COC(=O)C(C)=NNc1nc(Cl)c(-c2c(F)cccc2F)n(CC(C)C)c1=O [compound 78]
Test G disease control rating (Rhizoctonia oryzae; 200 ppm): 0% | Test E disease control rating (Botrytis cinerea; 200 ppm): 0% | Test K disease control rating ([1]; 200 ppm): 0% | Test C disease control rating (Sclerotinia sclerotiorum; 200 ppm): 0% | Test H disease control rating (Septoria nodorum; 200 ppm): 0% | Test I disease control rating (fusarium graminearium): 0% | Test D disease control rating (Plasmopara viticola): 0% | Test B disease control rating ([2]; 200 ppm): 0% | Test A disease control rating (Pythium aphanidermatum): 0% | Test L disease control rating ([3]; 200 ppm): 0% | Test J disease control rating (Septoria tritici; 200 ppm): 91% | Test F disease control rating (Phytophthora infestans): 0%
